The source of these data is US8747890B2 (priority 2009, dated 2014).

Series [1] can be described thus: Extrapolation of blood Cmax to an 80 kg human after intravenous infusion. The conditions noted are these: 440 mg/M^2 one hour infusion.
For series [2] the following is noted: human, whole blood, iv, 9 mg/m2.

In general, Cmax refers to the maximum level reached in the sampled fluid or tissue. On to `COc1cc(C=CC(=O)CC(=O)C=Cc2ccc(O)c(OC)c2)ccc1O` [curcumin, 1,7-bis(4-hydroxy-3-methoxyphenyl)-1,6-heptadiene-3,5-dione], for which, in series [1], the “Cmax extrapolated to humans” value was 160000 ng/mL. Also, in series [2], the peak level (Cmax) was 3400 ng/mL.
